Reference: patent US20090291442A1, “HSPA1A AS A MARKER FOR SENSITIVITY TO KSP INHIBITORS” (SMITHKLINE BEECHAM CORPORATION, priority 2006, published 2009)
Where a name gives a salt, the structure may show the parent alone.

What was measured:
[1] = system: Wilm's tumor WT7 xenograft; assay: Outcome of human Wilm's tumor xenograft WT7 to KSP inhibitor; type: in vivo; conditions: Wilm's tumor xenograft WT7, known outcome
Description: (§1) Affymetrix® gene expression profiling was conducted to identify baseline expression patterns associated with sensitivity to the KSP inhibitor in human Wilm's tumor xenograft models. Total RNA from three distinct Wilm's tumors with known outcomes to Ispinesib mesylate (2-3 replicates) inhibition was labeled using a 5 μg protocol and hybridized to the HG-U133A Affymetrix® array. Baseline gene expression differences between tumors resistant (WT7 and WT8) and sensitive (WT10) to Ispinesib mesylate were compared. […] Validation by QPCR of the same tumors confirmed this expression pattern.

[2] = system: Wilm's tumor WT8 xenograft; assay: Outcome of human Wilm's tumor xenograft WT8 to KSP inhibitor; type: in vivo; conditions: Wilm's tumor xenograft WT8, known outcome
Description: as §1

[3] = system: Wilm's tumor WT10 xenograft; assay: Outcome of human Wilm's tumor xenograft WT10 to KSP inhibitor; type: in vivo; conditions: Wilm's tumor xenograft WT10, known outcome
Description: as §1

[4] = system: Colo201 (colon cancer); assay: Cell line sensitivity to KSP inhibitor (FACS analysis); type: cell-based; conditions: Colo201 cells
From the text: (§2) Baseline expression of HSPA1a was validated in 4 cell lines: MX1 (breast cancer) and MV522 (lung cancer) resistant to Ispinesib mesylate and Colo201 (colon cancer) and Colo205 (colon cancer) sensitive to Ispinesib mesylate inhibition. Like the tumors, HSPA1a expression differentiated the resistant cell lines from the sensitive cell lines.
(§3) A more extensive list of preclinical cell lines compared with those presented in Example 2, including cell lines from both solid and liquid tumors, was analyzed. Again, these cell lines were previously determined to be either resistant or sensitive to Ispinesib mesylate using FACS analysis. […] Of the 22 cell lines analyzed, HSPA1a expression levels were correctly able to classify 19 cell lines as resistant or sensitive to the KSP inhibitor. The HSPA1a marker misclassified 2 cell lines Daudi and HCT116 as sensitive (due to low baseline expression in these cells) and HeLaS3 cell line as resistant (due to high baseline expression of HSPA1a in these cells).

[5] = system: Colo205 (colon cancer); assay: as above; type: cell-based; conditions: Colo205 cells
From the text: as §2, §3

[6] = system: MV522 (lung cancer); assay: as above; type: cell-based; conditions: MV522 cells
From the text: as §2, §3

[7] = system: MX1 (breast cancer); assay: as above; type: cell-based; conditions: MX1 cells
From the text: as §2, §3

[8] = molecular target: T1, KSP (Homo sapiens, UniProt P52732); conditions: literature statement; cited from earlier work
T1 sequence (P52732 1-1056): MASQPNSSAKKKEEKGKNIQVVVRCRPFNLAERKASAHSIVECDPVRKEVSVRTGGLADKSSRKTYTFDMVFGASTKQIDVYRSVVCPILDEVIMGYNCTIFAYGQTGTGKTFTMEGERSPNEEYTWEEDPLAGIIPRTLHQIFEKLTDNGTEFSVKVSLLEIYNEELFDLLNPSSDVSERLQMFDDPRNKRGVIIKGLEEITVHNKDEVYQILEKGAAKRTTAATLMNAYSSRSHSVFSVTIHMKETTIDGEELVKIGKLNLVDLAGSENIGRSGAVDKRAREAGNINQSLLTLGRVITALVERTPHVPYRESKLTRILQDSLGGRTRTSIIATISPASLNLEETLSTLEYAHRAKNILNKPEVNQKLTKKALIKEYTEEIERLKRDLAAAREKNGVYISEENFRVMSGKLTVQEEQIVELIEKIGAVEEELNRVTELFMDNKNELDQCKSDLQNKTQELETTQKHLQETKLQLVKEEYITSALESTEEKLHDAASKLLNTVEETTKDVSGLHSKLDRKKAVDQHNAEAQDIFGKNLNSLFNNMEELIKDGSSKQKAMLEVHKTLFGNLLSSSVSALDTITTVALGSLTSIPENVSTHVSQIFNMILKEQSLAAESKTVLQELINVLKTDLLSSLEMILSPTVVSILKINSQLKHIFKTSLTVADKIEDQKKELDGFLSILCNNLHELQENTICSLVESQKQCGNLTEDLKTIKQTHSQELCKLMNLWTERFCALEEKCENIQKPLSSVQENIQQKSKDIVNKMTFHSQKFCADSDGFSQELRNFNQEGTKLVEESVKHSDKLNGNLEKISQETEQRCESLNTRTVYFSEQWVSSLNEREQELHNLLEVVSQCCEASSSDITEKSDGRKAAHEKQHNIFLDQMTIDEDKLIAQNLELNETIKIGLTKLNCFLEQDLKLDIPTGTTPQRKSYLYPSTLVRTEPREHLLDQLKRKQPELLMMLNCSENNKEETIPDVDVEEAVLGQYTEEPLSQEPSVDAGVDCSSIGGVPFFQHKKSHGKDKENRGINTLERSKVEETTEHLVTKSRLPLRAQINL

## Cc1ccc(C(=O)N(CCCN)[C@@H](c2nc3cc(Cl)ccc3c(=O)n2Cc2ccccc2)C(C)C)cc1 [Ispinesib mesylate]
[1]
  tumor resistant or sensitive to the compound: resistant
[2]
  tumor resistant or sensitive to the compound: resistant
[3]
  tumor resistant or sensitive to the compound: sensitive
[4]
  cell line resistant or sensitive to the compound: sensitive
[5]
  cell line resistant or sensitive to the compound: sensitive
[6]
  cell line resistant or sensitive to the compound: resistant
[7]
  cell line resistant or sensitive to the compound: resistant
[8]
  inhibition of KSP (in words): potent and selective inhibitor of KSP
